Test results from paper PMC2957683, “IKKβ inhibitor identification: a multi-filter driven novel scaffold” (2010).

Target: T1, IKKβ (Homo sapiens, UniProt O14920)
T1 construct: gene IKBKB
T1 sequence (O14920 1-756): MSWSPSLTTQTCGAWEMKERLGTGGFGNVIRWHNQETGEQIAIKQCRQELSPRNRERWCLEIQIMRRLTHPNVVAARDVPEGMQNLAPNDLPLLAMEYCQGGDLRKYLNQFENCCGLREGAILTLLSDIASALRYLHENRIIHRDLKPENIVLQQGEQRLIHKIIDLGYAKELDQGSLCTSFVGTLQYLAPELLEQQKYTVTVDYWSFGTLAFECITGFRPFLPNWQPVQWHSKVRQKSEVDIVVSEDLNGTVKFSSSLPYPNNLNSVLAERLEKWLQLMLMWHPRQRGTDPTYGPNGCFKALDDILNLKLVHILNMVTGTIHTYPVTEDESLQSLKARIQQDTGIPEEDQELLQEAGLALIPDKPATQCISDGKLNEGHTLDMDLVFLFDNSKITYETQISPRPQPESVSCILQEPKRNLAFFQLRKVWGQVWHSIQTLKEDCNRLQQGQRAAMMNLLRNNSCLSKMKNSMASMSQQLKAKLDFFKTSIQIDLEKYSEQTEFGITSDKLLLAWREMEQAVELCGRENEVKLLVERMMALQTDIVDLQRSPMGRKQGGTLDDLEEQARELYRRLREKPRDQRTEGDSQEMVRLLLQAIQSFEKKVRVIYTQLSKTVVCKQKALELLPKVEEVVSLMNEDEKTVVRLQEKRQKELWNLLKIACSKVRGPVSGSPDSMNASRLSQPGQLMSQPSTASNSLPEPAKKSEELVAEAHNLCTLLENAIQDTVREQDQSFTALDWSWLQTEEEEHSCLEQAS
Assay: IMAP TR-FRET kinase assay with IKKβ enzyme (Millipore), IκBα-derived peptide substrate, […] ATP
Assay type: biochemical

Row | IC50 | SMILES
1 | 0.17 µM | N#Cc1c(C2CCCNC2)cc(-c2ccccc2O)nc1N (centres unmarked) [Bayer-5a]
2 | 20.3 µM | COc1ccc(-c2nc3c(c(SCC(=O)Nc4cccc(O)c4)n2)Cc2c(CO)cnc(C)c2O3)cc1 [VH01]
